From the SangsterLogP compilation

SMILES | logP
Cn1cnc([N+](=O)[O-])c1Sc1nc(=S)[nH]c2ncn(C)c12 | 1.19
Cn1cnc([N+](=O)[O-])c1Sc1nc(=O)[nH]c2ncn(C)c12 | 1.12
Cn1cnc([N+](=O)[O-])c1Sc1nc(Sc2c([N+](=O)[O-])ncn2C)c2c(ncn2C)n1 | 1.68
Cn1cnc([N+](=O)[O-])c1Sc1nc(OCc2ccccc2)nc2ncn(C)c12 | 2.67
Cn1cnc([N+](=O)[O-])c1Sc1nc(SCc2ccccc2)nc2ncn(C)c12 | 2.91
CN1C=NC([N+](=O)[O-])C1Sc1nc2ncn(C)c2c(=O)[nH]1 (configuration not stated) | 1.21
Cn1cnc([N+](=O)[O-])c1Sc1nc2ncn(C)c2c(=S)[nH]1 | 1.26
COc1nc(Sc2c([N+](=O)[O-])ncn2C)c2c(ncn2C)n1 | 1.45

Results, then the compound that gave them:

logP | SMILES
2.02 | C=CCOc1nc(Sc2c([N+](=O)[O-])ncn2C)c2c(ncn2C)n1
1.5 | Cn1cnc([N+](=O)[O-])c1Sc1nc(Cl)nc2ncn(C)c12
1.6 | CSc1nc(Sc2c([N+](=O)[O-])ncn2C)c2c(ncn2C)n1
2.43 | C=CCSc1nc(Sc2c([N+](=O)[O-])ncn2C)c2c(ncn2C)n1
